Patent EP3679952A1, “NANOEMULSIONS ENCAPSULATING PRODRUGS” (Université de Strasbourg, priority 2019, dated 2020)

What was measured:
MDA-MB-231 = test: MTS cytotoxicity assay in cell culture; assay type: cell-based, Human; details: MDA-MB-231 cells, 48h incubation, prodrugs loaded in nanoemulsion, free drugs without nanoemulsion
Procedure: (§1) The MTS assay is based on the reduction of the MTS tetrazolium compound by viable mammalian cells (here, by tumor cells) to generate a colored formazan dye that is soluble in cell culture media. The formazan dye is quantified by measuring the absorbance at 490-500 nm. […] After 24h, the medium was removed and replaced by drug-containing (LipoHD-DOX nanoemulsion or DOX alone) medium. After 48h, the medium was removed and replaced with MTS-containing medium (0,5 mg/ml). After 4h of incubation, the medium was removed, replaced with 100µl of DMSO (agitation, 20 min) and the absorbance was read at 570 nm.

Jimt1 = test: MTS cytotoxicity assay in cell culture; assay type: cell-based, Human; details: Jimt1 cells, 48h incubation, prodrugs loaded in nanoemulsion, free drugs without nanoemulsion
Procedure: as §1

4T1 = test: MTS cytotoxicity assay in cell culture; assay type: cell-based, mouse; details: 4T1 cells, 48h incubation, prodrugs loaded in nanoemulsion, free drugs without nanoemulsion
Procedure: as §1

[1] = Doxorubicin loading of nanoemulsions containing compounds of formula II'a (Example 2); assay type: physicochemical; details: nanoemulsion with the compound at 5 wt% in Labrafac, Cremophore, reacted with doxorubicin at pH 4, 37°C, 24h, then dialysed 24h and centrifuged
Procedure: (§2) Corresponding compounds of formula II'a were respectively dissolved first into the oil Labrafac® at 5 wt%. Then 45 mg of surfactant Cremophore ® was added to 55 mg of above solution. The mixture was homogenized under magnetic stirring at 40°C for 10 min up to complete homogenisation. Finally, nanoemulsions were generated with the addition of phosphate buffered saline (230 mg).
300 µl of the obtained nanoemulsion encapsulating the compound of formula II'a were diluted into 300 µl of 20 mM acetate buffer (pH=4), and then 50 µl of 30 mM solution of doxorubicin in DMSO was added. The mixture was reacted under shaking at 37°C during 24h.
After the reaction, the sample was dialysed for 24h at NaHCO3 buffer (0.1 M) at pH8 and then centrifugation at 6000 rpm for 1 minute was carried out.

[2] = Storage stability of nanoemulsions (absorption spectra, precipitation) after 4 days; assay type: physicochemical; details: for change of absorption spectra on storage: nanoemulsions of the compound reacted with DOX, after 4 days storage at 4°C
Procedure: • Figure 1: Scheme of synthesis of DOX/Lipo-HD conjugate in situ inside lipid nanoemulsions. • Figure 2A: Absorption spectra of 100 timed diluted nanoemulsions containing reference dye F888 and with Lipo-HD alone (F888-Lipo-HD), of 100 timed diluted nanoemulsions with Lipo-HD after incubation with DOX (F888-Lipo-HD-DOX), and of nanoemulsions encapsulating F888-Lipo-HD-DOX and further dialysis (F888-Lipo-HD-DOX after dialysis). Reference dye F888 was encapsulated at 0.5 wt% of with respect to Labrafac oil. Lipo-HD was encapsulated at 10 wt%. • Figure 2B: Absorption spectra of 100 timed diluted nanoemulsions containing F888 but without Lipo-HD (F888), of 100 times diluted nanoemulsions containing F888 after incubation with DOX (F888-DOX), and of nanoemulsion encapsulating F888-DOX further dialysis (F888-DOX after dialysis). […] Reference dye F888 was encapsulated at 0.5 wt%. • Figure 4A: Fluorescence spectra of nanoemulsions encapsulating 0.5 wt% of donor dye F888 with 10 wt% of Lipo-HD (F888-Lipo-HD) or without Lipo-HD (F888). • Figure 4B: Fluorescence spectra of nanoemulsions with Lipo-HD incubated with DOX and then dialyzed (F888-Lipo-HD-DOX), of nanoemulsions without Lipo-HD incubated with DOX and then dialyzed (F888-DOX), and of nanoemulsions containing F888 alone (F888). […] All fluorescence spectra were corrected from the blank. • Figures 5A, 5B: Fluorescence spectra of F888-Lipo-HD-DOX nanoemulsions (5000-fold dilution) in the presence of blank nanoemulsions (50-fold dilution) at pH 7.4 (Fig. 5A) and 4.0 (Fig. 5B). […] All fluorescence spectra were corrected from the blank. • Figures 5C: Fluorescence intensity ratio donor/acceptor as a function of incubation time for pH 7.4 and 4.0 (Fig. 5C). • Figure 6A, 6B: Absorption spectra of four nanoemulsions containing respectively a compound of formula I'a, where R1 and R2 are butyl (C4)-alkyl chains, or octyl (C8)-alkyl chains, or octadecyl (C18)-alkyl chains, or R1 is a single C18 alkyl-chain, while R2 = H (C18 mono chain). […]

[3] = Size distribution of nanoemulsions by dynamic light scattering; assay type: physicochemical; details: nanoemulsion with the compound at 5 wt% in Labrafac, Cremophore, reacted with doxorubicin (Example 2)
Procedure: The compound Lipo-HD was dissolved firstly into the oil Labrafac® at 10 wt%. Then 65 mg of surfactant Solutol was added to 35 mg of above solution. The mixture was homogenized under magnetic stirring at 90°C for 10 min up to complete homogenisation. Finally, nanoemulsions were generated with the addition of ultrapure (Milli-Q) water (230 mg). The size of nanoemulsions could be monitored by the variation of the ratio between oil (labrafac) and surfactant (solutol).
Size distributions were determined by dynamic light scattering using Zetasizer Nano ZSP (Malvern Instruments S.A).
as §2

[4] = DOX encapsulation in nanoemulsions with or without Lipo-HD, absorption spectra after dialysis (Example 1); assay type: physicochemical; details: for loading: after dialysis; for retention inside nanoemulsions after dialysis: dialysis in 0.1M NaHCO3 for 12h
Procedure: The compound Lipo-HD was dissolved firstly into the oil Labrafac® at 10 wt%. Then 65 mg of surfactant Solutol was added to 35 mg of above solution. The mixture was homogenized under magnetic stirring at 90°C for 10 min up to complete homogenisation. Finally, nanoemulsions were generated with the addition of ultrapure (Milli-Q) water (230 mg). The size of nanoemulsions could be monitored by the variation of the ratio between oil (labrafac) and surfactant (solutol). For fluorescence studies, 0.5 wt% of a donor dye […] is added respectively to Labrafac® containing or not 10 wt% of Lipo-HD. Then the nanoemulsions were prepared as described above. […] was used for monitoring the encapsulation, release and stability of the nanoemulsion by looking on the intensity variation between […] and DOX. […] To those solutions, […] of DOX-HCl (30 mM) was added. The mixtures were vortexes for 12 h at 37 °C. The Scheme of synthesis is illustrated in figure 1. The resulting solutions were dialyzed in 500 mL of 0.1M NaHCO3 for 12h. Absorption spectra were recorded on a Cary® spectrophotometer (Varian) according to conventional measurement method.

Row | Encapsulation loading (%) [1] [%] | loading efficiency (%) [1] [%] | precipitation of nanoemulsion ([2]; nanoemulsion of the compound reacted with DOX, 4 days after preparation) | change of absorption spectra on storage [2] | PDI [3] | Size (nm) [3] [nm] | loading ([4]; DOX loading with respect to labrafac oil, nanoemulsion with 10 wt% Lipo-HD, calculated with extinction coefficient of DOX 12 200 M^-1cm^-1) [wt%] | SMILES | Cytotoxicity (MDA-MB-231) | Cytotoxicity (Jimt1) | Cytotoxicity (4T1) | loading ([4]; DOX loading of nanoemulsion without Lipo-HD) [%] | retention inside nanoemulsions after dialysis [4] | solubility in oil ([4]; conjugate formed in situ in nanoemulsion, compared with DOX alone)
1 | – | – | – | – | – | – | – | CCCCCCCCCCCCCCCCCCN(CCCCCCCCCCCCCCCCCC)C(=O)CCC(=O)Nc1ccn([C@@H]2O[C@H](CO)[C@@H](O)C2(F)F)c(=O)n1 [Lipo-N-Gem] | slightly more efficient | slightly more efficient | dose-dependent | – | – | –
2 | 0.68 | 21 | signs of precipitation | strong loss of absorbance | 0.132 | 104 | – | CCCCCCCCCCCCCCCCCCNC(=O)CCC(=O)NN [Lipo-HD-C18] | – | – | – | – | – | –
3 | – | – | – | – | – | – | – | CC(=O)O[C@H]1C(=O)[C@@]2(C)[C@H]([C@H](OC(=O)c3ccccc3)[C@]3(O)C[C@H](OC(=O)[C@H](O)[C@@H](NC(=O)c4ccccc4)c4ccccc4)C(C)=C1C3(C)C)[C@]1(OC(C)=O)CO[C@@H]1C[C@@H]2O [paclitacel, paclitaxel, reference compound] | slightly higher | slightly higher | slightly higher | – | – | –
4 | 1.58 | 55 | – | minimal changes | 0.118 | 99 | 1.6 | CCCCCCCCCCCCCCCCCCN(CCCCCCCCCCCCCCCCCC)C(=O)CCC(=O)NN [Lipo-HD, 3-(hydrazinecarbonyl)-N,N-dioctadecylpropanamide] | – | – | – | – | – | –
5 | – | – | – | – | – | – | – | COc1cccc2c1C(=O)c1c(O)c3c(c(O)c1C2=O)C[C@@](O)(C(=O)CO)C[C@@H]3O[C@H]1C[C@H](N)[C@H](O)[C@H](C)O1 [DOX, doxorubicin, reference compound] | dose-dependent cytotoxicity | dose-dependent cytotoxicity | dose-dependent cytotoxicity | < 0.06 | leaked out | –
6 | – | – | – | – | – | – | – | CCCCCCCCCCCCCCCCCCN(CCCCCCCCCCCCCCCCCC)C(=O)CCC(=O)NN=C(CO)C1(O)Cc2c(O)c3c(c(O)c2C(OC2CC(N)C(O)C(C)O2)C1)C(=O)c1c(OC)cccc1C3=O (stereo not shown) [Lipo-HD-DOX] | higher toxicity | higher toxicity | similarly | – | remain inside nanoemulsions after dialysis | much better soluble in oil than DOX alone
